In brackets after ≈: the same amount, converted by molar mass. Like-named read-outs stand apart in the source and are kept apart here.
Assays:
[1] = Log D measurement (n-octanol/PBS shake, LC-MS/MS); type: physicochemical; settings: pH 7.4, read-out: LogD7.4 (Oct/buff)
Experimental: Two replicates of test compounds (DMSO stock solution 10 mM, 2 μL/well) and QCs (DMSO 10 mM, 2 μL/well) were transferred from the storage tube to a 96-well cluster tube. Add buffer-saturated n-octanol ([…]) and n-octanol-saturated PBS (149 μL/well) to each well; vortex mix the cluster tube for 1 minute, mix by shaking on a plate shaker at 880 rpm for one hour, and then centrifuge at 4000 rpm for 10 minutes. Remove the cover pad, accurately measure a certain amount of n-octanol layer samples (4 μL/well) into a 96-well plate containing n-octanol internal standard diluent (796 μL/well); accurately measure a certain amount of buffer salt layer samples (30 μL/well) into a 96-well plate containing buffer internal standard diluent (570 μL/well); the dilution factor of the sample can be adjusted according to different properties of the sample. Samples were analyzed using a triple quadrupole mass spectrometer. The processed sample solution was analyzed by the fast isocratic elution and small column retention method, the concentration correction was carried out by dilution factor and internal standard, and the ratio of the corrected peak area was used to calculate the final result (Log D/Log P value).

[2] = Thermodynamic solubility assay (PBS pH 6.5; isopropyl myristate); type: physicochemical; settings: thermodynamic from solid
Experimental: Thermodynamic Solubility Assay
Weigh not less than 2 mg of the sample powder into a Whatman Mini-UniPrep vial. If it is required to test the thermodynamic solubility of samples in multiple buffers, a separate vial is needed for each test; add 450 μL of buffer to each Whatman Mini-UniPrep vial, respectively; after that, install the piston cap of Whatman Mini-UniPrep and press it above the liquid level, so that the filter is in contact with the buffer during shaking; shake the solubility sample by vortexing for 1 minute.
Inject 3 UV standard solutions from low to high concentrations into the HPLC, then inject the diluent and supernatant of the test compound, with two replicates of test sample; and integrate the UV peaks. Simulate a standard curve and calculate the thermodynamic solubility of the sample.

[3] = Plasma stability, mini pig plasma; type: in vitro ADME, Mini Pigs; settings: 37° C.
Experimental: (§1) In addition, the plasma stability of these compounds was determined. Briefly, the determination method comprises the following steps: • 1) Thaw the frozen mixed plasma in a 37° C. water bath before testing, and then centrifuge at 4000 rpm for 5 min to remove blood clots; • 2) Add 98 μL blank plasma into each well of the 96-well reaction plate; • 3) In addition to the blank samples, add 2 μL of 100 μM working solution of test compound into each well; • 3) Incubate the reaction plate at 37° C. and start timing. Incubation times were 0, 10, 30, 60 and 120 minutes, respectively, with two replicate wells at each time point; • 4) Terminate the incubation at the corresponding time point, and add 400 μL of acetonitrile solution containing 200 ng/mL tolbutamide and 200 ng/mL labetalol to precipitate proteins; • 5) Shake each plate for 20 minutes, then centrifuge at 4000 rpm for 20 minutes, transfer 50 μL of supernatant to another 96-well plate, and dilute each sample with 100 μL of pure water; • 6) Analyze the sample by LC-MS/MS.

[4] = Plasma stability, human plasma; type: in vitro ADME, Humans; settings: 37° C.
Experimental: as §1
The experiment results are as follows, and it can be seen from the test results that the selected compounds are easily metabolized to the target compound in human plasma.

[5] = system: rash caused by small molecule EGFR inhibitors; assay: Prevention of rash caused by small molecule EGFR inhibitors, topical ointment, rat model; type: in vivo, SD rats
In short: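 Female SD rats (~200 g, dorsal hair shaved, 10/group) dosed daily by gavage with small-molecule EGFR inhibitors; compound ointment or blank matrix applied once daily to ~3 cm×3 cm of back, left 4 h, then wiped off. Repeated until obvious rash in controls; control rate = % of treated rats with milder rash than controls.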

[6] = system: skin contact delayed-type hypersensitivity; assay: Skin contact delayed-type hypersensitivity (DNFB) response test, ear swelling, topical ointment; type: in vivo; settings: topical to ears, DNFB DTH, Balb/c mice, compared to blank ointment
Excerpt: Therapeutic Effect of Topical Administration of Compounds of the Present Application in Skin Contact Delayed-Type Hypersensitivity Response Test in Mice Delayed-type hypersensitivity (DTH) response in mouse skin is considered to be an effective model for clinical contact dermatitis and other T cell-mediated cutaneous immune diseases, such as atopic dermatitis and psoriasis. The DTH in mice shares the common features with these cutaneous immune diseases, including immunoinfiltration with an increase of inflammatory cytokines and hyperproliferation of keratinocytes. Balb/c mice were sensitized by topical administration of the antigen 2,4-dinitrofluorobenzene (DNFB) to the shaved back of mice on Days 0 and 1. On Day 5, the thickness of the ears was measured using an engineering micrometer. The measurement result was recorded and used as a baseline. The animals were then challenged with a total of 20 μL of DNFB (10 μL for the internal pinna and 10 μL for the external pinna) topically dosed to both ears at a concentration of 0.2%. The ears were measured again 24-72 hours after challenge. The compound ointment of the present application was applied topically to the ears of the animals throughout the allergic and challenge periods (Days −1˜7) or before or throughout the challenge period (generally Days 4˜7). The therapeutic effect was expressed by a reduction in ear swelling compared to that of the blank ointment. The compound causing a reduction of 20% or more was considered effective. Table 5 lists the skin contact delayed-type hypersensitivity experiment results in mice treated with the compound of the present application.

## COCCOCC(=O)OCCN(C)C(=O)n1ccc2c(N(C)[C@H]3CN(C(=O)CC#N)CC[C@H]3C)ncnc21 [Compound A18]
[1]
  logD: 0.23
[2]; aqueous buffer, PBS buffer pH 6.5, about 25° C., read-out: Thermodynamic Solubility pH = 6.5
  solubility thermodynamic at 24 h: > 4840 µg/mL
[2]; oil or lipid, isopropyl myristate as vehicle, about 25° C., read-out: Thermodynamic Solubility in Isopropyl Myristate
  solubility thermodynamic at 24 h: 54.7 µg/mL (≈ 103 µM)
[3]
  half-life at 2 µM: 9.1 min
[3]; 0 min
  % Retained: 100.0%
[3]; 10 min
  % Retained: 57.3%
[3]; 30 min
  % Retained: 13.5%
[3]; 60 min
  % Retained: 1.3%
[3]; 120 min
  % Retained: 0.0%
[4]
  half-life at 2 µM: 1.9 min
[4]; 0 min
  % Retained: 100.0%
[4]; 10 min
  % Retained: 2.6%
[4]; 30 min
  % Retained: 0.0%
[4]; 60 min
  % Retained: 0.0%
[4]; 120 min
  % Retained: 0.0%
[5]; BPI-7711 60 mg/kg once a day, ointment 3.0 wt% once a day, 14 days
  Control Rate: 70%
[5]; EAI045 80 mg/kg once a day, ointment 0.3 wt% once a day, 11 days
  Control Rate: 30%
[5]; EAI045 80 mg/kg once a day, ointment 3.0 wt% once a day, 11 days
  Control Rate: 70%
[5]; EAI045 80 mg/kg once a day, ointment 5.0 wt% once a day, 11 days
  Control Rate: 90%
[5]; Zorifertinib 60 mg/kg once a day, ointment 3.0 wt% once a day, 12 days
  Control Rate: 60%
[6]; ointment 0.1 wt%
  Reduction Rate of Ear Swelling: 23%
[6]; ointment 1.0 wt%
  Reduction Rate of Ear Swelling: 29%
[6]; ointment 5.0 wt%
  Reduction Rate of Ear Swelling: 37%
[6]; ointment 10.0 wt%
  Reduction Rate of Ear Swelling: 45%
